Experiments:
B. subtilis 168 = test: Bliss interaction score (quartile over a dose matrix) (fitness difference); higher = more antagonism (negative = synergy)
Procedure, shortened: (§1)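 Fitness here means normalised growth, inferred for single drugs from the combination data. Growth was OD595 at entry into stationary phase, divided by the plate's robust no-drug mean and capped at 1. The Bliss score is observed minus expected fitness, with the expectation being the product, and its quartiles span technical, biological and donor/recipient replicates.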

S. aureus DSM 20231 [1] = test: as above
Procedure, shortened: as §1

S. aureus Newman [2] = test: as above
Procedure, shortened: as §1

S. pneumoniae D39V = test: as above
Procedure, shortened: as §1

S. aureus DSM 20231 [3] = test: fitness (endpoint OD595 vs no drug) (fraction); higher = more growth
Procedure, shortened: (§2)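 Background-subtracted growth curves were the basis for fitness, taken as the optical density at entry into stationary phase over the robust mean of no-drug control wells. A cap of 1 was applied. The curves came from OD595 readings every 30 min for 14 h at 37 °C, in 384-well plates seeded at OD595 0.01 with 30 µl, or 55 µl for S. pneumoniae.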

S. aureus Newman [4] = test: as above
Procedure, shortened: as §2

[5] = first compound 0.75 µg/mL, partner 0.125 µg/mL
[6] = first compound 1.5 µg/mL, partner 0.125 µg/mL
[7] = first compound 3 µg/mL, partner 0.0312 µg/mL
[8] = first compound 3 µg/mL, partner 0.0625 µg/mL
[9] = first compound 3 µg/mL, partner 0.125 µg/mL
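Throughout, for Bliss interaction score (quartile over a dose matrix): first quartile when negative (synergy) and third quartile when positive (antagonism).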

Row | Compound | Bliss interaction score (B. subtilis 168) | Bliss interaction score (S. aureus DSM 20231 [1]) | Bliss interaction score (S. aureus Newman [2]) | Bliss interaction score (S. pneumoniae D39V) | other results
1 | CC(=O)OC[C@H]1O[C@@H]([S-])[C@H](OC(C)=O)[C@@H](OC(C)=O)[C@@H]1OC(C)=O.CCP(CC)CC.[Au+] [Auranofin] + C1=CC(=CC(=C1)Cl)NN=C(C#N)C#N [CCCP] | 0.0372 | 0.0194 | 0.0798 | 0.0425 | 
2 | CC(=O)OC[C@H]1O[C@@H]([S-])[C@H](OC(C)=O)[C@@H](OC(C)=O)[C@@H]1OC(C)=O.CCP(CC)CC.[Au+] [Auranofin] + C/C(=C\C(=O)OCCCCCCCCC(=O)O)C[C@@H]1OC[C@H](C[C@@H]2O[C@H]2[C@@H](C)[C@H](C)O)[C@@H](O)[C@H]1O [Pseudomonic acid] | 0.0268 | 0.0133 | 0.0254 | 0.081 | 
3 | CC(=O)OC[C@H]1O[C@@H]([S-])[C@H](OC(C)=O)[C@@H](OC(C)=O)[C@@H]1OC(C)=O.CCP(CC)CC.[Au+] [Auranofin] + CC1(C)S[C@@H]2[C@H](NC(=O)Cc3ccccc3)C(=O)N2[C@H]1C(=O)O [PenicillinG] | -0.0513 | 0.0414 | -0.0443 | 0.0454 | 
4 | CC(=O)OC[C@H]1O[C@@H]([S-])[C@H](OC(C)=O)[C@@H](OC(C)=O)[C@@H]1OC(C)=O.CCP(CC)CC.[Au+] [Auranofin] + CC1=C(C(=O)O)N2C(=O)[C@@H](NC(=O)[C@H](N)c3ccccc3)[C@H]2SC1 [Cephalexin] | -0.0587 | -0.0272 | -0.0291 | -0.101 | 
5 | CC(=O)OC[C@H]1O[C@@H]([S-])[C@H](OC(C)=O)[C@@H](OC(C)=O)[C@@H]1OC(C)=O.CCP(CC)CC.[Au+] [Auranofin] + CC1=C\[C@@H](O)CC(=O)Cc2nc(co2)C(=O)N2CCC=C2C(=O)O[C@H](C(C)C)[C@H](C)/C=C/C(=O)NC\C=C\1 [Virginiamycin M1] | -0.0329 | -0.0753 | -0.0212 | 0.0585 | 
6 | CC(=O)OC[C@H]1O[C@@H]([S-])[C@H](OC(C)=O)[C@@H](OC(C)=O)[C@@H]1OC(C)=O.CCP(CC)CC.[Au+] [Auranofin] + CC(=O)NC[C@H]1CN(c2ccc(N3CCOCC3)c(F)c2)C(=O)O1 [Linezolid] | -0.0379 | 0.0191 | 0.067 | -0.104 | 
7 | CC(=O)OC[C@H]1O[C@@H]([S-])[C@H](OC(C)=O)[C@@H](OC(C)=O)[C@@H]1OC(C)=O.CCP(CC)CC.[Au+] [Auranofin] + CC(=O)O[C@H]1C[C@@]2(C)[C@@H](C[C@@H](O)[C@H]3[C@@]4(C)CC[C@@H](O)[C@@H](C)[C@@H]4CC[C@@]32C)/C1=C(\CCC=C(C)C)C(=O)O [Fusidic acid] | 0.0389 | 0.019 | 0.0311 | -0.0761 | 
8 | CC(=O)OC[C@H]1O[C@@H]([S-])[C@H](OC(C)=O)[C@@H](OC(C)=O)[C@@H]1OC(C)=O.CCP(CC)CC.[Au+] [Auranofin] + CC(C1CCC(C(O1)OC2C(CC(C(C2O)OC3C(C(C(CO3)(C)O)NC)O)N)N)N)NC [Gentamicin] |  |  |  |  | Bliss interaction score (B. subtilis 168; main component drawn): -0.0544; Bliss interaction score (S. aureus DSM 20231 [1]; main component drawn): 0.0359; Bliss interaction score (S. aureus Newman [2]; main component drawn): 0.0898; Bliss interaction score (S. pneumoniae D39V; main component drawn): -0.0834
9 | CC(=O)OC[C@H]1O[C@@H]([S-])[C@H](OC(C)=O)[C@@H](OC(C)=O)[C@@H]1OC(C)=O.CCP(CC)CC.[Au+] [Auranofin] + CCC(C)C1C(=O)NC(=C)C(=O)NC(C(=O)NC(CSCC(C(=O)N1)NC(=O)/C(=C/C)/NC(=O)C(C(C)CC)N)C(=O)NC2C(SCC(NC(=O)CNC(=O)C3CCCN3C2=O)C(=O)NC(CCCCN)C(=O)NC4C(SCC(NC(=O)CNC(=O)C(NC(=O)C(NC(=O)C(NC(=O)CNC4=O)C)CC(C)C)CCSC)C(=O)NC(CC(=O)N)C(=O)NC(CCSC)C(=O)NC(CCCCN)C(=O)NC5C(SCC6C(=O)NC(C(=O)NC(CSC(C(C(=O)N6)NC(=O)C(NC5=O)C)C)C(=O)NC(CO)C(=O)NC(C(C)CC)C(=O)NC(CC7=CN=CN7)C(=O)NC(C(C)C)C(=O)NC(=C)C(=O)NC(CCCCN)C(=O)O)CC8=CN=CN8)C)C)C)CC(C)C [Nisin] |  |  |  |  | Bliss interaction score (B. subtilis 168; main component drawn): -0.0321; Bliss interaction score (S. aureus DSM 20231 [1]; main component drawn): -0.0361; Bliss interaction score (S. aureus Newman [2]; main component drawn): 0.0274; Bliss interaction score (S. pneumoniae D39V; main component drawn): -0.0798
10 | CC(=O)OC[C@H]1O[C@@H]([S-])[C@H](OC(C)=O)[C@@H](OC(C)=O)[C@@H]1OC(C)=O.CCP(CC)CC.[Au+] [Auranofin] + CCCCCCCCCC(=O)N[C@@H]1[C@H]([C@@H]([C@H](O[C@H]1OC2=C3C=C4C=C2OC5=C(C=C(C=C5)[C@H]([C@H]6C(=O)N[C@@H](C7=C(C(=CC(=C7)O)OC8[C@H]([C@H]([C@@H]([C@H](O8)CO)O)O)O)C9=C(C=CC(=C9)[C@H](C(=O)N6)NC(=O)[C@@H]4NC(=O)[C@@H]1C2=CC(=CC(=C2)OC2=C(C=CC(=C2)[C@H](C(=O)N[C@H](CC2=CC(=C(O3)C=C2)Cl)C(=O)N1)N)O)O)O)C(=O)O)O[C@H]1[C@@H]([C@H]([C@@H]([C@H](O1)CO)O)O)NC(=O)C)Cl)CO)O)O [Teicoplanin] |  |  |  |  | Bliss interaction score (B. subtilis 168; main component drawn): -0.0433; Bliss interaction score (S. aureus DSM 20231 [1]; main component drawn): 0.0469; Bliss interaction score (S. aureus Newman [2]; main component drawn): 0.0303; Bliss interaction score (S. pneumoniae D39V; main component drawn): 0.0761
11 | CC(=O)OC[C@H]1O[C@@H]([S-])[C@H](OC(C)=O)[C@@H](OC(C)=O)[C@@H]1OC(C)=O.CCP(CC)CC.[Au+] [Auranofin] + CCC[C@@H]1C[C@@H](C(=O)N[C@@H]([C@H]2O[C@H](SC)[C@H](O)[C@@H](O)[C@H]2O)[C@@H](C)O)N(C)C1 [Lincomycin] | 0.066 | 0.0235 | 0.0853 | -0.0496 | 
12 | CC(=O)OC[C@H]1O[C@@H]([S-])[C@H](OC(C)=O)[C@@H](OC(C)=O)[C@@H]1OC(C)=O.CCP(CC)CC.[Au+] [Auranofin] + CCC[C@@H]1C[C@@H](C(=O)N[C@@H]([C@H]2O[C@H](SC)[C@H](O)[C@@H](O)[C@H]2O)[C@H](C)Cl)N(C)C1 [Clindamycin] | 0.0424 | 0.0307 | 0.0741 | 0.0341 | 
13 | CC(=O)OC[C@H]1O[C@@H]([S-])[C@H](OC(C)=O)[C@@H](OC(C)=O)[C@@H]1OC(C)=O.CCP(CC)CC.[Au+] [Auranofin] + CCN(CC)CCOC(=O)c1ccc(N)cc1 [Procaine] | -0.0372 | -0.0516 | -0.0631 | -0.0391 | 
14 | CC(=O)OC[C@H]1O[C@@H]([S-])[C@H](OC(C)=O)[C@@H](OC(C)=O)[C@@H]1OC(C)=O.CCP(CC)CC.[Au+] [Auranofin] + CC[C@H]1OC(=O)[C@H](C)C(=O)[C@H](C)[C@@H](O[C@@H]2O[C@H](C)C[C@H](N(C)C)[C@H]2O)[C@](C)(OC)C[C@@H](C)C(=O)[C@H](C)[C@H]2N(CCCCn3cnc(-c4cccnc4)c3)C(=O)O[C@]12C [Telithromycin] | -0.0304 | 0.0187 | 0.0309 | 0.0324 | 
15 | CC(=O)OC[C@H]1O[C@@H]([S-])[C@H](OC(C)=O)[C@@H](OC(C)=O)[C@@H]1OC(C)=O.CCP(CC)CC.[Au+] [Auranofin] + CC[C@H]1OC(=O)[C@H](C)[C@@H](O[C@H]2C[C@@](C)(OC)[C@@H](O)[C@H](C)O2)[C@H](C)[C@@H](O[C@@H]2O[C@H](C)C[C@H](N(C)C)[C@H]2O)[C@](C)(O)C[C@@H](C)C(=O)[C@H](C)[C@@H](O)[C@]1(C)O [Erythromycin] | 0.0564 | 0.0169 | 0.0459 | 0.0643 | 
16 | CC(=O)OC[C@H]1O[C@@H]([S-])[C@H](OC(C)=O)[C@@H](OC(C)=O)[C@@H]1OC(C)=O.CCP(CC)CC.[Au+] [Auranofin] + CC[C@H]1OC(=O)[C@H](C)[C@@H](O[C@H]2C[C@@](C)(OC)[C@@H](O)[C@H](C)O2)[C@H](C)[C@@H](O[C@@H]2O[C@H](C)C[C@H](N(C)C)[C@H]2O)[C@](C)(O)C[C@@H](C)CN(C)[C@H](C)[C@@H](O)[C@]1(C)O [Azithromycin] | 0.0589 | 0.0282 | 0.137 | -0.038 | 
17 | CC(=O)OC[C@H]1O[C@@H]([S-])[C@H](OC(C)=O)[C@@H](OC(C)=O)[C@@H]1OC(C)=O.CCP(CC)CC.[Au+] [Auranofin] + CC[C@H]1OC(=O)[C@H](C)[C@@H](O[C@H]2C[C@@](C)(OC)[C@@H](O)[C@H](C)O2)[C@H](C)[C@@H](O[C@@H]2O[C@H](C)C[C@H](N(C)C)[C@H]2O)[C@](C)(OC)C[C@@H](C)C(=O)[C@H](C)[C@@H](O)[C@]1(C)O [Clarithromycin] | 0.0346 | 0.0219 | 0.0636 | 0.039 | 
18 | O=C(N[C@H](CO)[C@H](O)c1ccc([N+](=O)[O-])cc1)C(Cl)Cl [Chloramphenicol] + CCC[C@@H]1C[C@@H](C(=O)N[C@@H]([C@H]2O[C@H](SC)[C@H](O)[C@@H](O)[C@H]2O)[C@H](C)Cl)N(C)C1 [Clindamycin] |  | 0.0541 | -0.0758 | 0.155 | fitness (S. aureus DSM 20231 [3]; first compound 0.75 µg/mL, partner 0.0625 µg/mL): 0.0956; fitness (S. aureus DSM 20231 [3]; [5]): 0.0527; fitness (S. aureus DSM 20231 [3]; [6]): 0.0897; fitness (S. aureus DSM 20231 [3]; [7]): 0.137; fitness (S. aureus DSM 20231 [3]; [8]): 0.0841; fitness (S. aureus DSM 20231 [3]; [9]): 0.0677; fitness (S. aureus Newman [4]; first compound 0.75 µg/mL, partner 0.0312 µg/mL): 0.539; fitness (S. aureus Newman [4]; [5]): 0.0906; fitness (S. aureus Newman [4]; first compound 1.5 µg/mL, partner 0.0312 µg/mL): 0.392; fitness (S. aureus Newman [4]; [6]): 0.0591; fitness (S. aureus Newman [4]; [7]): 0.11; fitness (S. aureus Newman [4]; [8]): 0.0976; fitness (S. aureus Newman [4]; [9]): 0.0645

Source: the supplement of paper PMC10627819
